US12274679B2, “Substituted alkylphenols as HCN1 antagonists” (Cornell University, priority 2018, dated 2025)
Entries after “also recorded” stand apart in the source; their conditions may differ.

What was measured:
[1] = molecular target: T1, HCN1 channels (Mus musculus, UniProt O88704); test: Two electrode voltage clamp of HCN1 channels expressed in Xenopus oocytes (shift in V1/2); type: cell-based; settings: for potency as HCN1 inverse agonist compared with propofol: relative to propofol (2,6-di-iso-propylphenol); for offset of the 2,6-DTBP Hill fit of the V1/2 shift: right shift of the concentration-response relative to 2,6-DTBP, HCN1; for efficacy apparent in the concentration response (Hill fit): ΔV1/2 of HCN1, 2,6 di-alkylbenzene analogues; for inhibition of HCN1 channel gating: 20 min pre-incubation, 20 mM HPβCD + DMSO, compared with free 2,6-DTBP
T1 sequence (O88704 74-390 limits assumed): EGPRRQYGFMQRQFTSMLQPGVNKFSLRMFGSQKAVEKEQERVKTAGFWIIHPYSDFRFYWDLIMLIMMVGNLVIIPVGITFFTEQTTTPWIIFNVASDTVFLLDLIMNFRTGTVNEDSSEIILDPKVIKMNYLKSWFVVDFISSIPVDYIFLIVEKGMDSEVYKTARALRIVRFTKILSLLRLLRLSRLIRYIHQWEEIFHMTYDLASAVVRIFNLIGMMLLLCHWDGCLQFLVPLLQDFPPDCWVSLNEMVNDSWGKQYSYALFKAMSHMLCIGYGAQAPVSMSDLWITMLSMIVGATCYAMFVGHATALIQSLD

[2] = system: chronic constriction injury model of peripheral neuropathic pain; settings: bolus administration; cited from earlier work
[3] = system: HCN1 vs. HCN2-4; test: Effect on V1/2 of HCN1-4 channels (isoform selectivity); type: cell-based
[4] = system: mechanical and thermal hyperalgesia after nerve ligation; test: Nerve ligation model: paw withdrawal probability and hindpaw withdrawal latency after cumulative i.p. dosing
[5] = system: normal nociception, locomotor activity, motor coordination, muscle strength; settings: anti-hyperalgesic dose, cited from earlier work
[6] = Whole blood concentration after oral gavage, LC-MS/MS; type: in vivo; settings: rats, oral gavage in peanut oil, 0.58 mmole/kg, over 30 hours
Protocol: FIG. 29 is a graph showing the concentration of BP4L-18:1:1 in whole blood after administration to rats. Eight adult rats were gavaged with either 0.5 mL of peanut oil (n=4) or 0.5 mL of peanut oil containing 0.58 mmole/kg BP4L-18:1:1 (n=4). Blood samples were obtained at the indicated times. Following extraction using equi-volumes of acetonitrile, precipitation and filtration, blood concentrations of BP4L-18:1:1 were determined using LC-MS/MS. Dotted black lines indicate the concentrations of BP4L-18:1:1 for individual animals that received drug, the solid black line indicates the mean±SEM for the plus-drug cohort. Dotted and solid grey lines are, respectively, the concentrations of BP4L-18:1:1 detected in individual peanut oil-alone animals and the mean±SEM thereof. Grey lines superimpose and are indistinguishable from the time axis.
LCMS/MS was performed on an Agilent 1290 Infinity II UPLC system and Agilent 6495 Triple Quadrupole mass spectrometer. […] Quantitation was performed using multiple reaction monitoring in positive electrospray ionization mode using the transition 517.4→233.1 and a collision energy of 42. […]
Pharmacokinetic properties of exemplary compound BP4L-18:1:1 (compound 6) were evaluated in rats (FIG. 29). In particular, concentration of BP4L-18:1:1 in whole blood samples were determined over the course of 30 hours after oral administration.

[7] = Solubilisation in DMSO and dispersion into aqueous buffer; type: physicochemical
[8] = system: animal models of neuropathic pain; settings: in vivo; cited from earlier work
[9] = simultaneous fit, absence and presence of 3 μM 2,6-DTBP

CCC(C)c1ccc(O)c(C(C)CC)c1 (stereo not drawn) [2,4-DSBP, 2,4-di-sec-butylphenol]
potency as HCN1 inverse agonist compared with propofol [1]: less potent
offset of the 2,6-DTBP Hill fit of the V1/2 shift [1]: 23 fold

CC(C)c1cc(N)cc(C(C)C)c1O [4-AP]
HCN1 antagonism by 4-substituted 2,6-DIPPs [1]: effective

CC(C)(C)C1CCCC(C(C)(C)C)C1O (stereo not drawn) [2,6-DTBCH]
efficacy apparent in the concentration response (Hill fit) [1]: partial

CC(C)(C)c1cccc(C(C)(C)C)c1O [2,6-DTBP, 2,6-di-tert-butylphenol]
reversal of mechanical hypersensitivity [2]: ~45%
reversal of thermal hypersensitivity [2]: complete reversal
potency as HCN1 inverse agonist compared with propofol [1]: more potent
efficacy apparent in the concentration response (Hill fit) [1]: full
selectivity for HCN1 vs. HCN2-4 [3]: retains propofol's selectivity for HCN1 vs. HCN2-4
mechanical and thermal hyperalgesia with respect to mechanical and thermal nociception [4]: Selectively Suppresses Mechanical and Thermal Hyperalgesia
thermal hyperalgesia (HPWL) ([4]; heat source intensity 15%): ameliorates thermal hyperalgesia
thermal nociception (HPWL) ([4]; heat source intensity 30%): without overt effect
normal nociception (pin prick test) [5]: does not disrupt normal nociception
locomotor activity, motor coordination and muscle strength ([5]; open field, rotarod, horizontal wire): nor does it perturb

CC(C)(C)c1ccc(O)c(C(C)(C)C)c1 [2,4-DTBP, 2,4-di-tert-butylphenol]
potency as HCN1 inverse agonist compared with propofol [1]: more potent
offset of the 2,6-DTBP Hill fit of the V1/2 shift [1]: 2 fold

CC(C)C1CCCC(C(C)C)C1O (stereo not drawn) [2,6-DIPCH]
efficacy apparent in the concentration response (Hill fit) [1]: partial

CCc1cccc(CC)c1O [2,6-DEP]
efficacy apparent in the concentration response (Hill fit) [1]: partial

CCC(C)c1cccc(C(C)CC)c1O (stereo not drawn) [2,6-DSBP, 2,6-di-sec-butylphenol]
EC50 [1]: 370 µM
potency as HCN1 inverse agonist compared with propofol [1]: less potent
offset of the 2,6-DTBP Hill fit of the V1/2 shift [1]: 15 fold
JcI (association constant, common site model N=4) [1, 9]: 3,696±2,948
JoI (association constant, common site model N=4) [1, 9]: 881±1,801
inverse agonist potency and efficacy ([1]; ΔV1/2 in absence and presence of 3 μM 2,6-DTBP): low potency, high efficacy, inverse agonist
efficacy apparent in the concentration response (Hill fit) [1]: partial

CC(C)c1cccc(C(C)C)c1O [2,6-DIPP, 2,6-di-iso-propylphenol]
efficacy apparent in the concentration response (Hill fit) [1]: full

CC(C)c1cc([N+](C)(C)C)cc(C(C)C)c1O [4-TMAP]
HCN1 antagonism by 4-substituted 2,6-DIPPs [1]: ineffective

CC(C)(C)c1cc(C(=O)CCCCCCCC/C=C/CCCCCCC(O)CO)cc(C(C)(C)C)c1O (stereo not drawn) [BP4L-18:1:1, (E)-1-(3,5-di-tert-butyl-4-hydroxyphenyl)-18,19-dihydroxynonadec-10-en-1-one]
inhibition of HCN1 channel gating [1]: concentration-dependent; also recorded: effectively inhibits channel gating with a potency and efficacy indistinguishable from free 2,6-DT BP
absorption / bioavailability from whole blood concentration [6]: absorbed demonstrating bioavailability

CC(C)c1cc(C(C)(C)C)cc(C(C)C)c1O [4-TBP]
HCN1 antagonism by 4-substituted 2,6-DIPPs [1]: fully effective

CC(Cl)CCCCCCCCC(=O)c1cc(C(C)(C)C)c(O)c(C(C)(C)C)c1 (stereo not drawn) [BP4C-11:0:1]
HCN1 antagonism of tethered, unanchored 2,6-DTBP ([1]; 10 and 100 μM, applied from the outside): 4-adduct tolerance is retained
dispersion into an aqueous buffer [7]: reasonably easy to disperse

CC(C)(C)c1cc(C(=O)CCCCCCCCC(O)CO)cc(C(C)(C)C)c1O (stereo not drawn) [BP4L-10:0:1]
inhibition of HCN1 channel gating [1]: largely ineffective
dispersion into an aqueous buffer [7]: reasonably easy to disperse

COc1cc2c(cc1OC)CC(=O)N(CCCN(C)C[C@H]1Cc3cc(OC)c(OC)cc31)CC2 [ivabradine]
anti-hyperalgesia [8]: significant anti-hyperalgesia

CCN(c1ccccc1)c1cc(=NC)n(C)c(C)n1.Cl [ZD7288]
anti-hyperalgesia [8]: significant anti-hyperalgesia
